Laboratory results taken from patent US7323471B1, “Topical azathioprine for the treatment of oral autoimmune diseases” (DOR Biopharma, Inc., priority 1999, dated 2008).

Columns and labels:
[1] = system: oral findings due to GVHD
Protocol: Five other patients suffering from oral findings due to GVHD were treated with oral azathioprine solutions, using the method of the present invention. The patients were treated with 5 ml of a solution of AZA (5 mg/ml), three-four times daily. […] One patient (#5) was treated once with an oral rinse, and subsequently with a combination of an AZA rinse and AZA in a gel (5 mg/ml in a 3% methylcellulose base). The patients were not treated with any systemic immunosuppressant or steroid drug. The progress of each patient was reviewed at the times indicated.

[2] = 50 mg/ml solution, 60 days at 25° C.; cited from earlier work
parodontosis = conditions: topical administration; cited from earlier work
corneal graft rejections = conditions: topical administration; cited from earlier work
aphthous stomatitis = conditions: topical administration; cited from earlier work
[3] = delayed-release oral capsule, improved ileocolonic delivery; cited from earlier work
chronic oral GVHD = test: Case report: severe chronic oral GVHD refractory to systemic and topical therapies; conditions: when systemic prednisone was increased; tongue ulceration not resolved
Protocol: They had continuing difficulties with GVHD, including oral involvement.
Oral findings were consistent with pseudomembranous candidiasis, and an ulceration on the left cheek was consistent with minor trauma. […] Acute (grade II) GVHD (skin and liver) was treated with systemic corticosteroids.
Leukoplakia involving the lateral borders of the tongue, consistent with hairy-like leukoplakia, developed. […] Oral changes included findings consistent with GVHD and reactivation of HSV. HSV and candida were confirmed on culture. […] Multiple dilated salivary ducts were visualized on the soft palate. Ulcerations of 3-4 mm in diameter were present on the lateral borders, the dorsum, and the tip of the tongue. […] Biopsy of the ulcer on the cheek was consistent with HSV.
Extensive lichenoid striae with moderate erythema and ulceration involving the lateral tongue on the right and left and the right cheek was seen. A second oral biopsy of lip mucosa and minor salivary glands was completed, which was interpreted as grade II GVHD.
The AZA suspension was made by combining AZA powder with a cherry flavored methylcellulose (1%) suspending vehicle to a final concentration of 5 mg/ml. […]

SMILES | reduction in ulceration ([1]; all but one of the GVHD patients of Table 1) | reduction in pain, all the patients ([1]; all five GVHD patients of Table 1) | estimated global improvement, all the patients ([1]; all five GVHD patients of Table 1, compared to condition prior to treatment) [%] | retained share of the initial concentration [2] | effect in the treatment of parodontosis (parodontosis) | effect in the treatment of corneal graft rejections (corneal graft rejections) | effect in the treatment of aphthous stomatitis (aphthous stomatitis) | systemic bioavailability [3] | oral symptoms and signs (chronic oral GVHD)
Cn1cnc([N+](=O)[O-])c1Sc1ncnc2nc[nH]c12 [AZA, azathioprine] | at least 50% | at least 50% | ≥ 40 | at least 96% | some beneficial effect | ineffective | ineffective | dramatically reduced systemic bioavailability | 
C[C@]12C=CC(=O)C=C1CC[C@@H]1[C@@H]2C(=O)C[C@@]2(C)[C@H]1CC[C@]2(O)C(=O)CO [prednisone] |  |  |  |  |  |  |  |  | improved
